In US10695337B2, “Piperidin-4-yl azetidine derivatives as JAK1 inhibitors” (Incyte Corporation, priority 2010, dated 2020):

Biological target: human JAK1 (a.a. 837-1142)
Experiment: In vitro JAK kinase assay (HTRF, phosphorylation of a biotinylated peptide), JAK1
Assay type: biochemical
Details: measured at 1 mM ATP; JAK2 IC50 / JAK1 IC50
Method in brief: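 N-terminally His-tagged catalytic domains, baculovirus-expressed in insect cells and purified, were used as enzyme. Reactions ran 1 hr at room temperature and were stopped with a mix of 45 mM EDTA, 300 nM SA-APC and 6 nM Eu-Py20. The HTRF signal was read after 40 min of antibody binding.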

Row | Structure (SMILES) | IC50 Ratio JAK2/JAK1
1 | N#CCC1(n2cc(-c3ncnc4[nH]ccc34)cn2)CN(C2CCN(C(=O)Nc3ccccc3F)CC2)C1 [Example 169, 4-{3-(cyanomethyl)-3-[4-(7H-pyrrolo[2,3-d]pyrimidin-4-yl)-1H-pyrazol-1-yl]azetidin-1-yl}-N-(2-fluorophenyl)piperidine-1-carboxamide] | 5.5
2 | N#CCC1(n2cc(-c3ncnc4[nH]ccc34)cn2)CN(C2CCN(C(=O)Nc3cccc(C(F)(F)F)c3F)CC2)C1 [Example 170, 4-{3-(cyanomethyl)-3-[4-(7H-pyrrolo[2,3-d]pyrimidin-4-yl)-1H-pyrazol-1-yl]azetidin-1-yl}-N-[2-fluoro-3-(trifluoromethyl)phenyl]piperidine-1-carboxamide] | 6.9
3 | N#CCC1(n2cc(-c3ncnc4[nH]ccc34)cn2)CN(C2CCN(C(=O)Nc3ccc(F)cc3F)CC2)C1 [Example 171, 4-{3-(cyanomethyl)-3-[4-(7H-pyrrolo[2,3-d]pyrimidin-4-yl)-1H-pyrazol-1-yl]azetidin-1-yl}-N-(2,4-difluorophenyl) piperidine-1-carboxamide] | 7.5
4 | N#CCC1(n2cc(-c3ncnc4[nH]ccc34)cn2)CN(C2CCN(C(=O)Nc3cc(F)cc(F)c3F)CC2)C1 [Example 173, 4-{3-(cyanomethyl)-3-[4-(7H-pyrrolo[2,3-d]pyrimidin-4-yl)-1H-pyrazol-1-yl]azetidin-1-yl}-N-(2,3,5-trifluorophenyl)piperidine-1-carboxamide] | 5.7
5 | N#CCC1(n2cc(-c3ncnc4[nH]ccc34)cn2)CN(C2CCN(C(=O)Nc3cc(F)ccc3F)CC2)C1 [Example 174, 4-{3-(cyanomethyl)-3-[4-(7H-pyrrolo[2,3-d]pyrimidin-4-yl)-1H-pyrazol-1-yl]azetidin-1-yl}-N-(2,5-difluorophenyl) piperidine-1-carboxamide] | 7.1
6 | N#CCC1(n2cc(-c3ncnc4[nH]ccc34)cn2)CN(C2CCN(C(=O)Nc3cc(F)cc(F)c3)CC2)C1 [Example 175, 4-{3-(cyanomethyl)-3-[4-(7H-pyrrolo[2,3-d]pyrimidin-4-yl)-1H-pyrazol-1-yl]azetidin-1-yl}-N-(3,5-difluorophenyl) piperidine-1-carboxamide] | 3.6
7 | N#CCC1(n2cc(-c3ncnc4[nH]ccc34)cn2)CN(C2CCN(C(=O)Nc3ccc(F)c(F)c3)CC2)C1 [Example 176, 4-{3-(cyanomethyl)-3-[4-(7H-pyrrolo[2,3-d]pyrimidin-4-yl)-1H-pyrazol-1-yl]azetidin-1-yl}-N-(3,4-difluorophenyl) piperidine-1-carboxamide] | 5.1
8 | N#CCC1(n2cc(-c3ncnc4[nH]ccc34)cn2)CN(C2CCN(C(=O)Nc3cccc(Cl)c3F)CC2)C1 [Example 177, N-(3-chloro-2-fluorophenyl)-4-{3-(cyanomethyl)-3-[4-(7H-pyrrolo[2,3-d]pyrimidin-4-yl)-1H-pyrazol-1-yl]azetidin-1-yl}piperidine-1-carboxamide] | 8.5
9 | N#CCC1(n2cc(-c3ncnc4[nH]ccc34)cn2)CN(C2CCN(C(=O)Nc3ccc(Cl)cc3F)CC2)C1 [Example 178, N-(4-chloro-2-fluorophenyl)-4-{3-(cyanomethyl)-3-[4-(7H-pyrrolo[2,3-d]pyrimidin-4-yl)-1H-pyrazol-1-yl]azetidin-1-yl}piperidine-1-carboxamide] | 6.5
10 | N#CCC1(n2cc(-c3ncnc4[nH]ccc34)cn2)CN(C2CCN(C(=O)Nc3ccsc3)CC2)C1 [Example 179, 4-{3-(cyanomethyl)-3-[4-(7H-pyrrolo[2,3-d]pyrimidin-4-yl)-1H-pyrazol-1-yl]azetidin-1-yl}-N-3-thienylpiperidine-1-carboxamide] | 3.8
11 | COc1ccccc1NC(=O)N1CCC(N2CC(CC#N)(n3cc(-c4ncnc5[nH]ccc45)cn3)C2)CC1 [Example 180, 4-{3-(cyanomethyl)-3-[4-(7H-pyrrolo[2,3-d]pyrimidin-4-yl)-1H-pyrazol-1-yl]azetidin-1-yl}-N-(2-methoxyphenyl)piperidine-1-carboxamide] | 4.0
12 | COc1cccc(NC(=O)N2CCC(N3CC(CC#N)(n4cc(-c5ncnc6[nH]ccc56)cn4)C3)CC2)c1 [Example 181, 4-{3-(cyanomethyl)-3-[4-(7H-pyrrolo[2,3-d]pyrimidin-4-yl)-1H-pyrazol-1-yl]azetidin-1-yl}-N-(3-methoxyphenyl)piperidine-1-carboxamide] | 4.9
13 | N#CCC1(n2cc(-c3ncnc4[nH]ccc34)cn2)CN(C2CCN(C(=O)Nc3ccc(OC(F)(F)F)cc3)CC2)C1 [Example 182, 4-{3-(cyanomethyl)-3-[4-(7H-pyrrolo[2,3-d]pyrimidin-4-yl)-1H-pyrazol-1-yl]azetidin-1-yl}-N-[4-(trifluoromethoxy)phenyl]piperidine-1-carboxamide] | 3.7
14 | N#CCC1(n2cc(-c3ncnc4[nH]ccc34)cn2)CN(C2CCN(C(=O)Nc3cccc(Cl)c3)CC2)C1 [Example 183, N-(3-chlorophenyl)-4-{3-(cyanomethyl)-3-[4-(7H-pyrrolo[2,3-d]pyrimidin-4-yl)-1H-pyrazol-1-yl]azetidin-1-yl}piperidine-1-carboxamide] | 3.8
15 | N#CCC1(n2cc(-c3ncnc4[nH]ccc34)cn2)CN(C2CCN(C(=O)Nc3ccc(Cl)cc3)CC2)C1 [Example 184, N-(4-chlorophenyl)-4-{3-(cyanomethyl)-3-[4-(7H-pyrrolo[2,3-d]pyrimidin-4-yl)-1H-pyrazol-1-yl]azetidin-1-yl}piperidine-1-carboxamide] | 3.9
16 | Cc1ccccc1NC(=O)N1CCC(N2CC(CC#N)(n3cc(-c4ncnc5[nH]ccc45)cn3)C2)CC1 [Example 185, 4-{3-(cyanomethyl)-3-[4-(7H-pyrrolo[2,3-d]pyrimidin-4-yl)-1H-pyrazol-1-yl]azetidin-1-yl}-N-(2-methylphenyl) piperidine-1-carboxamide] | 9.5
17 | COc1ccc(OC)c(NC(=O)N2CCC(N3CC(CC#N)(n4cc(-c5ncnc6[nH]ccc56)cn4)C3)CC2)c1 [Example 186, 4-{3-(cyanomethyl)-3-[4-(7H-pyrrolo[2,3-d]pyrimidin-4-yl)-1H-pyrazol-1-yl]azetidin-1-yl}-N-(2,5-dimethoxyphenyl)piperidine-1-carboxamide] | 5.5
18 | Cc1ccc(NC(=O)N2CCC(N3CC(CC#N)(n4cc(-c5ncnc6[nH]ccc56)cn4)C3)CC2)c(C)n1 [Example 189, 4-{3-(cyanomethyl)-3-[4-(7H-pyrrolo[2,3-d]pyrimidin-4-yl)-1H-pyrazol-1-yl]azetidin-1-yl}-N-(2,6-dimethylpyridin-3-yl)piperidine-1-carboxamide] | 3.5
19 | N#CCC1(n2cc(-c3ncnc4[nH]ccc34)cn2)CN(C2CCN(C(=O)Nc3nccs3)CC2)C1 [Example 190, 4-{3-(cyanomethyl)-3-[4-(7H-pyrrolo[2,3-d]pyrimidin-4-yl)-1H-pyrazol-1-yl]azetidin-1-yl}-N-1,3-thiazol-2-ylpiperidine-1-carboxamide] | 2.1
20 | Cc1csc(NC(=O)N2CCC(N3CC(CC#N)(n4cc(-c5ncnc6[nH]ccc56)cn4)C3)CC2)n1 [Example 191, 4-{3-(cyanomethyl)-3-[4-(7H-pyrrolo[2,3-d]pyrimidin-4-yl)-1H-pyrazol-1-yl]azetidin-1-yl}-N-(4-methyl-1,3-thiazol-2-yl)piperidine-1-carboxamide] | 1.4
21 | Cc1nc(NC(=O)N2CCC(N3CC(CC#N)(n4cc(-c5ncnc6[nH]ccc56)cn4)C3)CC2)sc1C [Example 192, 4-{3-(cyanomethyl)-3-[4-(7H-pyrrolo[2,3-d]pyrimidin-4-yl)-1H-pyrazol-1-yl]azetidin-1-yl}-N-(4,5-dimethyl-1,3-thiazol-2-yl)piperidine-1-carboxamide] | 3.0
22 | N#CCC1(n2cc(-c3ncnc4[nH]ccc34)cn2)CN(C2CCN(C(=O)Nc3nc4ccccc4s3)CC2)C1 [Example 193, N-1,3-benzothiazol-2-yl-4-{3-(cyanomethyl)-3-[4-(7H-pyrrolo[2,3-d]pyrimidin-4-yl)-1H-pyrazol-1-yl]azetidin-1-yl}piperidine-1-carboxamide] | 0.5
23 | Cn1c(NC(=O)N2CCC(N3CC(CC#N)(n4cc(-c5ncnc6[nH]ccc56)cn4)C3)CC2)nc2ccccc21 [Example 194, 4-{3-(cyanomethyl)-3-[4-(7H-pyrrolo[2,3-d]pyrimidin-4-yl)-1H-pyrazol-1-yl]azetidin-1-yl}-N-(1-methyl-1H-benzimidazol-2-yl)piperidine-1-carboxamide] | 2.2
24 | N#CCC1(n2cc(-c3ncnc4[nH]ccc34)cn2)CN(C2CCN(C(=O)Nc3nc(-c4ccc(Cl)cc4)cs3)CC2)C1 [Example 195, N-[4-(4-chlorophenyl)-1,3-thiazol-2-yl]-4-{3-(cyanomethyl)-3-[4-(7H-pyrrolo[2,3-d]pyrimidin-4-yl)-1H-pyrazol-1-yl]azetidin-1-yl}piperidine-1-carboxamide] | 3.2
25 | CCn1nccc1NC(=O)N1CCC(N2CC(CC#N)(n3cc(-c4ncnc5[nH]ccc45)cn3)C2)CC1 [Example 196, 4-{3-(cyanomethyl)-3-[4-(7H-pyrrolo[2,3-d]pyrimidin-4-yl)-1H-pyrazol-1-yl]azetidin-1-yl}-N-(1-ethyl-1H-pyrazol-5-yl)piperidine-1-carboxamide] | 9.9
26 | Cc1cc(NC(=O)N2CCC(N3CC(CC#N)(n4cc(-c5ncnc6[nH]ccc56)cn4)C3)CC2)n(C)n1 [Example 197, 4-{3-(cyanomethyl)-3-[4-(7H-pyrrolo[2,3-d]pyrimidin-4-yl)-1H-pyrazol-1-yl]azetidin-1-yl}-N-(1,3-dimethyl-1H-pyrazol-5-yl)piperidine-1-carboxamide] | 3.2
27 | Cc1ncccc1NC(=O)N1CCC(N2CC(CC#N)(n3cc(-c4ncnc5[nH]ccc45)cn3)C2)CC1 [Example 198, 4-{3-(cyanomethyl)-3-[4-(7H-pyrrolo[2,3-d]pyrimidin-4-yl)-1H-pyrazol-1-yl]azetidin-1-yl}-N-(2-methylpyridin-3-yl)piperidine-1-carboxamide] | 4.4
